Holding throughout (assay type): cell-based
Assay [1] relates to Staphylococcus aureus ATCC 9144. As to the kind of experiment: Minimum inhibitory concentration (MIC), further microorganisms. The note with it: Table 8; * = significant inhibition of growth, but not complete inhibition. The gist of the method: (§1)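 Broth microdilution in DMSO, 1:2 series; inocula adjusted to 1–5×10^6 CFU/ml then diluted 1:100 in CASO broth (bacteria, yeast) or Sabouraud 2% glucose broth (mould). Incubation 48 h at 37° C or 5 days at 28° C; MIC = lowest concentration giving ≦20% growth versus control by OD 620 nm.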

In assay [2] the test system is Klebsiella pneumonia ATCC 4352. Described as above. The settings on record: Table 8; * = significant inhibition of growth, but not complete inhibition. The procedure, abridged: as §1
The test system of assay [3] is Enterococcus hirae ATCC 10541. Described as above. The note with it: Table 8; * = significant inhibition of growth, but not complete inhibition. The gist of the method: as §1
In assay [4] the test system is Micrococcus luteus ATCC 9341. The description is as above. The note with it: Table 8; * = significant inhibition of growth, but not complete inhibition. The procedure, abridged:
as §1

Assay [5] concerns Candida albicans ATCC 10231. The description is as above. The note with it: Table 8; * = significant inhibition of growth, but not complete inhibition. The gist of the method: as §1
For assay [6], the system named is Pseudomonas aeruginosa CIP A-22. The description is as above. The note with it: Table 8. The gist of the method: as §1
For assay [7], the system named is Trichophyton mentagrophytes ATCC 9533. The description is as above. The settings on record: Table 8; * = significant inhibition of growth, but not complete inhibition. The procedure, abridged: as §1
Assay [8] concerns Aspergillus niger ATCC 6275. The description is as above. The settings on record: Table 8; * = significant inhibition of growth, but not complete inhibition. The procedure, abridged: as §1
Assay [9] concerns Epidermophyton floccosum DSM 10709. The assay is described as above. The settings on record: Table 8; * = significant inhibition of growth, but not complete inhibition. The procedure, abridged: as §1
The subject of assay [10] is S. epidermidis ATCC 12228. The assay is described as above. The note with it: Table 8; * = significant inhibition of growth, but not complete inhibition. The procedure, abridged: as §1
Assay [11] deals with Salmonella choleraesuis ATCC 10708. The description is as above. The note with it: Table 8. The procedure, abridged:
as §1

Assay [12] relates to Escherichia coli NCTC 8196. Description: Minimum inhibitory concentration (MIC) in microtitre plates. The procedure, abridged:
(§2)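 Compounds in DMSO, 1:2 dilution series; bacteria at 1–5×10^6 CFU/ml diluted 1:100 in CASO broth. Incubation 48 h at 37° C, growth read as OD 620 nm. MIC is the lowest concentration giving ≤20% growth relative to control; duplicates.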

The subject of assay [13] is Staphylococcus hominis DMS 20328. The description is as above. The note with it: Table 7; 48 hours at 37° C.; MIC = ≦20% growth compared to control. The procedure, abridged:
as §2

≈ marks a conversion by molar mass, not a printed value.

As to `CCCCCCCCCCCCCCCNc1cc(C(C)C)nc(-c2ccccn2)n1` [compound 99], the “Minimum inhibitory concentration (MIC) Staphylococcus aureus ATCC 9144” value in assay [1] stood at 7.5 µg/mL (≈ 17.7 µM). The “Minimum inhibitory concentration (MIC) Klebsiella pneumonia ATCC 4352” value in assay [2] is >60 µg/mL. The “Minimum inhibitory concentration (MIC) Enterococcus hirae ATCC 10541” value in [3] was determined as 3.75 µg/mL (≈ 8.83 µM). In assay [4], the “Minimum inhibitory concentration (MIC) Micrococcus luteus ATCC 9341” value was determined as 1.0 µg/mL (≈ 2.35 µM). Moreover, in assay [5], the “Minimum inhibitory concentration (MIC) Candida albicans ATCC 10231” value is >60 µg/mL. Besides, the “Minimum inhibitory concentration (MIC) Pseudomonas aeruginosa CIP A-22” value in [6] was >60 µg/mL. In assay [7], the “Minimum inhibitory concentration (MIC) Trichophyton mentagrophytes ATCC 9533” value was >60 µg/mL. Further, the “Minimum inhibitory concentration (MIC) Aspergillus niger ATCC 6275” value in assay [8] is >60 µg/mL. Further, the “Minimum inhibitory concentration (MIC) Epidermophyton floccosum DSM 10709” value in [9] is reported as “*60 μg/mL”. For the same compound, the “Minimum inhibitory concentration (MIC) S. epidermidis ATCC 12228” value in [10] worked out at 3.75 µg/mL (≈ 8.83 µM). In assay [11], the “Minimum inhibitory concentration (MIC) Salmonella choleraesuis ATCC 10708” value was >60 µg/mL. In addition, in assay [12] (Table 7, 48 hours at 37° C., MIC = ≦20% growth compared to control), the “Minimum inhibitory concentration (MIC) E. coli” value was >120 µg/mL. Further, the “Minimum inhibitory concentration (MIC) E. coli NCTC 8196” value in [12] (Table 8, * = significant inhibition of growth, but not complete inhibition) was >60 µg/mL. In addition, in assay [13], the “Minimum inhibitory concentration (MIC) S. hominis” value came to 15 µg/mL (≈ 35.3 µM).

(Values after patent US7015228B2, “4-amino-2-(2-pyridyl)pyrimidines as microbicidal active substances” (Ciba Specialty Chemicals Corporation, priority 2001, dated 2006).)
